Measurements reported in patent publication US9617517B2, “Small chemical compound which promotes induction of differentiation of stem cells into insulin-producing cells and method for inducing differentiation of stem cells into insulin-producing cells using said small chemical compound” (NATIONAL UNIVERSITY CORPORATION KUMAMOTO UNIVERSITY, priority 2011, dated 2017).

Legend:
[1] = system: mouse ES cells (Pdx1/GFP); experiment: Differentiation of mouse ES cells into insulin positive cells on nano fiber plate, immunostaining and quantitative image analysis; type: cell-based
Text: Two ES cell lines, one expressing green fluorescent protein (GFP) under the control of insulin 1 promoter, designed ING (Higuchi Y., Shiraki N., Yamane K, Qin Z., Mochitate K., Araki K., Senokuchi K., Yamagata K., Hara M., Kume K., and Kume S., Synthesized basement membranes direct the differentiation of mouse embryonic stem cells into pancreatic lineages. J. Cell Science, 123, 2733-2742, 2010), and the other one expressing GFP under the control of Pdx1 promoter, designated SK7 (Shiraki N, Yoshida T, Araki K, et al. Guided differentiation of embryonic stem cells into Pdx1-expressing regional-specific definitive endoderm. Stem Cells. 2008; 26:874-885), were used. Both cell lines were maintained on mouse embryonic fibroblast (MEF) feeders in Glasgow minimum essential medium (Invitrogen) containing 1000 units/ml leukemia inhibitory factor (LIF; Chemicon), 15% Knocked-out Serum Replacement (KSR; Gibco), 1% fetal bovine serum (FBS; Hyclone), 100 μM nonessential amino acids (NEAA; Invitrogen), 2 mM L-glutamine (L-Gln; Invitrogen), 1 mM sodium pyruvate (Invitrogen), 50 units/ml penicillin and 50 μg/ml streptomycin (PS; Invitrogen) and 100 μM β-mercaptoethanol (β-ME; Sigma), as ES maintenance medium.
For the differentiation studies, ES cells were plated at 5,000 cells per well in Corning 96 well plate with Ultra-Web Synthetic Polyamine Surface (#3873XX1, Corning Coster, Cambridge, Miss.), and cultured. The cells were cultured in Dulbecco's Modified Eagle Medium (DMEM: Invitrogen, Glasgow, UK) containing 4500 mg/L glucose, supplemented with NEAA, L-Gln, PS, β-ME, 10 μg/ml insulin (Sigma-Aldrich), 5.5 μg/ml transferrin (Sigma-Aldrich), 6.7 pg/ml selenium (Sigma-Aldrich), and 0.25% Albmax (Invitrogen), 10 ng/mL recombinant human activin-A (R&D Systems, Minneapolis, Minn.), 5 ng/mL; recombinant human bFGF for 7 days (d1-d7) (I of FIG. 1). And then, the medium was changed to RPMI 1640 medium (Invitrogen) containing 2000 mg/L glucose (Sigma, St Louis, Mo.), 1 μM Retinoic acid (Sigma-Aldrich), 50 ng/ml Human Recombinant Fibroblast Growth Factor-10 (Peprotech, Rocky Hill, N.J.), B27 SUPPLEMENT (Invitrogen) and 0.25 μM 3-Keto-N-(aminoethyl-aminocaproyl-dihydrocinnamoyl) cyclopamine Shh Signaling Antagonist II (Calbiochem, San Diego, Calif.) on d7 to d11 (II of FIG. 1). Finally, the medium was switched to DMEM containing 1000 mg/L glucose supplemented with NEAA, L-Gln, PS, β-ME, 10 μg/ml insulin (Sigma-Aldrich), 5.5 μg/ml transferrin (Sigma-Aldrich), 6.7 pg/ml selenium (Sigma-Aldrich), 0.25% Albmax (Invitrogen) and 10 mM nicotinamide (Sigma-Aldrich) on d11 to d17 (III of FIG. 1). Media were replaced every 2 days with fresh medium and growth factors until d17.
All tested small chemical compounds were solved in dimethyl sulfoxide (DMSO) at given concentration. Compounds were added on d11, d13 and d15 in a medium. Final concentration of DMSO was adjusted at 1.0% in all experiments for compounds.
After 17 days cell culture, cultured ES cells were fixed in 4% paraformaldehyde in PBS for 30 min at room temperature, and rinsed several times with PBS. Then, cells were incubated in the added diluted primary antibody in 20% Blocking One (Nacalai tesque, Tokyo, Japan) in PEST (0.1% Tween-20 in PBS) in a humidified chamber for overnight at 4° C. After washing the cells in PBST, cells were incubated with the secondary antibody in 20% Blocking One for 2 hr at room temperature in dark. After washing off the secondary antibody in PBST, cells were counterstained with […] (DAPI) (Roche Diagnostics). The following antibodies were used as First antibodies: Rabbit anti-GFP (MBL International Corp., Woburn, Mass.), Mouse anti-Insulin (Sigma). The following antibodies were used as Secondary antibodies: Alexa 568-conjugated, Alexa 488-conjugated antibodies (Invitrogen) Cells were counterstained with DAPI (Roche Diagnotics, Basel, Switzerland).

VMAT2KD ES cells = experiment: Differentiation into insulin-expressing cells in vesicular monoamine transporter knock-down cell line; type: cell-based, mouse; settings: VMAT2KD cells with dBu-cAMP 0.63 μM; control = normal cells without cAMP analog (FIG. 11A)
Method: In the Vmat2-knockdown and Drd2-knockdown assays, Expression Arrest non-silencing control shRNA (Open Biosystems, #RHS4080), Vmat2 hRNA (Open Biosystems, #RMM3981-97058457 and #RMM3981-97058458) or Drd2 hRNA (Open Biosystems, #RMM3981-9594258) lentiviral vectors were used. For virus preparation, HEK293-FT cells (Invitrogen) were seeded on a plate medium the day before transfection. After overnight culture, the cells were transfected with lentiviral vectors and ViraPower™ Lentiviral Packaging Mix (Invitrogen) using FuGENE6 Transfection Reagent (Roche) according to the manufacturer's protocol. Cells were incubated in the ES maintenance medium for 24 hours, and viral supernatants were collected. Then, SK7 cells were infected with the viral supernatants. After incubation for 24 hours, the virus-containing medium was replaced with fresh ES maintenance medium. Further 24 hours later, the infected cells were selected using […] puromycin. The surviving cells were cloned as a knockdown-cell lines.
Drd2 is known as a G protein-coupled receptor activating Gαi/o protein and having an inhibiting activity against adenyl cyclase. To identify the intracellular signal transduction phenomenon by Drd2, the effect of cAMP was examined. […] This enhancement was stronger than that obtained when dBu-cAMP was added to VMAT2KD ES cells (FIG. 10). […]

differentiated ES cells = experiment: Secreted insulin and cellular insulin content by mouse c-peptide ELISA; type: cell-based

CCCC(=O)Nc1ncnc2c1ncn2[C@@H]1O[C@@H]2COP(=O)(O)O[C@H]2[C@H]1OC(=O)CCC [Dibutyryl- cAMP, dibutyrate-cAMP]
increase of number of insulin positive cells ([1]; 0.6 μM dBu-cAMP (FIG. 11B)): about 7 fold
increase of number of insulin-expressing cells ([1]; NS cells, 0.63 μM dBu-cAMP d11-d17 (FIG. 11A)): 2.9 fold
effect on differentiation into insulin-expressing cells ([1]; compound added d11-d17, insulin staining d17 (FIG. 4, 5, 7, 8, 10)): enhanced the differentiation into insulin-expressing cells
Relative value of Ins positive cells ([1]; number of cells with no compound = 1, concentration of each compound (μM), added d11, d13, d15, analysed d17): 4.9
increase of number of insulin-expressing cells (VMAT2KD ES cells): 31.4 fold
sugar-responsive C-peptide secretion (differentiated ES cells; dBu-cAMP 0.6 μM, no TBZ, addition days 11-17, 11-15 or 13-17, day 17 (FIG. 17)): increased in all conditions
C-peptide secretion (differentiated ES cells; glucose concentration 27.5 mM, dBu-cAMP 0.6 μM day 11 to 17 (FIG. 18E)): C-peptide secretion was observed
